Measurements as given in ChEMBL document CHEMBL3808337, “Rapid Discovery of Pyrido[3,4-d]pyrimidine Inhibitors of Monopolar Spindle Kinase 1 (MPS1) Using a Structure-Based Hybridization Approach” (J Med Chem, 2016).

Key:
[1] = Antiproliferative activity against human RMG-1 cells assessed as cell viability after 72 hrs by MTT assay; format: functional; details: RMG-I
[2] = Clearance in Balb/C mouse blood at 5 mg/kg, iv or po after 24 hrs by ESI-LCMS/MS analysis; format: ADME, organism-based
[3] = Antiproliferative activity against human PNT2 cells assessed as cell viability after 72 hrs by MTT assay; format: functional; details: PNT2, 72 h
Cytochrome P450 3A4 [4] = biological target: T1, Cytochrome P450 3A4 (Homo sapiens, UniProt P08684); experiment: Inhibition of CYP3A4 (unknown origin) using midazolam as substrate; format: ADME
Cytochrome P450 3A4 [5] = biological target: T1, Cytochrome P450 3A4; experiment: Inhibition of CYP3A4T (unknown origin); format: ADME
[6] = biological target: Voltage-gated inwardly rectifying potassium channel KCNH2 (Homo sapiens, UniProt Q12809); experiment: Inhibition of human ERG at 1 to 10 uM
Cytochrome P450 2C9 = Cytochrome P450 2C9 (Homo sapiens, UniProt P11712); experiment: Inhibition of CYP2C9 (unknown origin); format: ADME; details: human
[7] = Drug metabolism in CD1 mouse liver microsomes at 10 uM after 30 mins by LCMS analysis; format: ADME; details: read-out: Drug metabolism
[8] = AUC in Balb/C mouse blood at 5 mg/kg, po after 24 hrs by ESI-LCMS/MS analysis; format: ADME, organism-based; design: time < 24 hr, dose 5 mg/kg, route oral
[9] = Oral bioavailability in Balb/C mouse at 5 mg/kg after 24 hrs by ESI-LCMS/MS analysis; format: ADME, organism-based; details: in vivo
[10] = Plasma protein binding in Balb/C mouse at 5 mg/kg, iv or po after 24 hrs by ESI-LCMS/MS analysis; format: ADME, organism-based; details: read-out: PPB (converted)
Cytochrome P450 2C19 = Cytochrome P450 2C19 (Homo sapiens, UniProt P33261); experiment: Inhibition of CYP2C19 (unknown origin); format: ADME; details: human
[11] = Antiproliferative activity against human CAL51 cells assessed as cell viability after 72 hrs by MTT assay; format: functional; details: CAL-51, 72 h
Cytochrome P450 3A4 [12] = biological target: T1, Cytochrome P450 3A4; experiment: Inhibition of CYP3A4 (unknown origin) using testosterone as substrate; format: ADME
[13] = Plasma protein binding in Sprague-Dawley rat at 5 mg/kg, iv or po after 24 hrs by ESI-LCMS/MS analysis; format: ADME, organism-based; details: read-out: PPB (converted)
[14] = Volume of distribution at steady state in Balb/C mouse at 5 mg/kg, iv or po after 24 hrs by ESI-LCMS/MS analysis; format: ADME, organism-based; details: in vivo, read-out: Vdss
Cytochrome P450 2C8 = biological target: T2, Cytochrome P450 2C8 (Homo sapiens, UniProt P10632); experiment: Inhibition of CYP2C8 (unknown origin); format: ADME
T2 sequence (P10632 whole entry): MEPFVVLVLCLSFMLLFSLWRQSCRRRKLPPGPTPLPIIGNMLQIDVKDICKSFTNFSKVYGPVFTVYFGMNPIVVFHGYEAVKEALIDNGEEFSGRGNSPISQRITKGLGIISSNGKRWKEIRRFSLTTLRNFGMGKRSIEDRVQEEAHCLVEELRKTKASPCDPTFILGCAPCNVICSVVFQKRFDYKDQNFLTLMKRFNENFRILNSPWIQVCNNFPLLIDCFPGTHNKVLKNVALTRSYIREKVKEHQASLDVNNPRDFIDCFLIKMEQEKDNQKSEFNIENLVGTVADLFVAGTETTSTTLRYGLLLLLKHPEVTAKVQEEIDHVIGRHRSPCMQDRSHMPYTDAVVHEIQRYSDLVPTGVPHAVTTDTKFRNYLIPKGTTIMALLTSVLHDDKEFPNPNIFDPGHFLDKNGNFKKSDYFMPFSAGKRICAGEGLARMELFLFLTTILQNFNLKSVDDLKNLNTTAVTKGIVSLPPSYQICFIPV

[15] = Drug metabolism in Sprague-Dawley rat liver microsomes at 10 uM after 30 mins by LCMS analysis; format: ADME; details: read-out: Drug metabolism
[16] = Drug metabolism in human liver microsomes at 10 uM after 30 mins by LCMS analysis; format: ADME; details: read-out: Drug metabolism
[17] = Half life in Balb/C mouse blood at 5 mg/kg, iv or po after 24 hrs by ESI-LCMS/MS analysis; format: ADME, organism-based
[18] = Oral bioavailability in Sprague-Dawley rat at 5 mg/kg after 24 hrs by ESI-LCMS/MS analysis; format: ADME, organism-based; details: in vivo
[19] = Cmax in Balb/C mouse blood at 5 mg/kg, po after 24 hrs by ESI-LCMS/MS analysis; format: ADME, organism-based; design: dose 5 mg/kg, route oral
[20] = Cmax in Sprague-Dawley rat blood at 5 mg/kg, po after 24 hrs by ESI-LCMS/MS analysis; format: ADME, organism-based; design: dose 5 mg/kg, route oral
[21] = Antiproliferative activity against human MIAPaCa2 cells assessed as cell viability after 72 hrs by MTT assay; format: functional; details: MIA PaCa-2, 72 h
[22] = Antiproliferative activity against human CAL27 cells assessed as cell viability after 72 hrs by MTT assay; format: functional; details: CAL-27, 72 h
[23] = Clearance in Sprague-Dawley rat blood at 5 mg/kg, iv or po after 24 hrs by ESI-LCMS/MS analysis; format: ADME, organism-based
[24] = Volume of distribution at steady state in Sprague-Dawley rat at 5 mg/kg, iv or po after 24 hrs by ESI-LCMS/MS analysis; format: ADME, organism-based; details: in vivo, read-out: Vdss
[25] = biological target: Mitogen-activated protein kinase 8 (Homo sapiens, UniProt P45983); experiment: Inhibition of human full length recombinant His-tagged JNK1 expressed in baculovirus by lanthascreen assay
[26] = Half life in Sprague-Dawley rat blood at 5 mg/kg, iv or po […] by ESI-LCMS/MS analysis; format: ADME, organism-based
Cytochrome P450 2B6 = biological target: T3, Cytochrome P450 2B6 (Homo sapiens, UniProt P20813); experiment: Inhibition of CYP2B6 (unknown origin); format: ADME
T3 sequence (P20813 whole entry): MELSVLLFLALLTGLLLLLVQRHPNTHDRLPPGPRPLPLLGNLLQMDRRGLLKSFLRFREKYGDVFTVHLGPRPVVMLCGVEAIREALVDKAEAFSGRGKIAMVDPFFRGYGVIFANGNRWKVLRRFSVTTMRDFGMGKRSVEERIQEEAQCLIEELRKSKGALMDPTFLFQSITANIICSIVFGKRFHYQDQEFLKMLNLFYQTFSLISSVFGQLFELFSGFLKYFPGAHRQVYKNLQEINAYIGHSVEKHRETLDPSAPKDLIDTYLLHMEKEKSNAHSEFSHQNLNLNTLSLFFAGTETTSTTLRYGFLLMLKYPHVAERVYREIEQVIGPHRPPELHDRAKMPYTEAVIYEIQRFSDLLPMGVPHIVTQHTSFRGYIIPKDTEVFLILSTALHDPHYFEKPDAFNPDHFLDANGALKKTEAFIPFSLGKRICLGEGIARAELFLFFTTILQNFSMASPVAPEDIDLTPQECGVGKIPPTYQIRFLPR

T1 sequence (P08684 whole entry): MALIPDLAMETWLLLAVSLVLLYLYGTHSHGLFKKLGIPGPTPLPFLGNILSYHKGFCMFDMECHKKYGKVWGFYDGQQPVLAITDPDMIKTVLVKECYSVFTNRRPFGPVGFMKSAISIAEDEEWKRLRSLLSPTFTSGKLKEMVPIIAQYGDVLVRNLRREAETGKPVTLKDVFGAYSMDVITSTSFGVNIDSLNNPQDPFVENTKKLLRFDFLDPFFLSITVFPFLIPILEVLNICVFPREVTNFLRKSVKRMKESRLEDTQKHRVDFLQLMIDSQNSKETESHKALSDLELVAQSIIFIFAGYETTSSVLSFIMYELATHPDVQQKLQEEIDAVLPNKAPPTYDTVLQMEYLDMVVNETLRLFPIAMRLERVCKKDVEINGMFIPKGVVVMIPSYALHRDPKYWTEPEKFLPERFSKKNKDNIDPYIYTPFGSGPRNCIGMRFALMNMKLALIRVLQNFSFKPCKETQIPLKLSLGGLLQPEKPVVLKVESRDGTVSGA
Cytochrome P450 2C19, sequence (P33261 whole entry): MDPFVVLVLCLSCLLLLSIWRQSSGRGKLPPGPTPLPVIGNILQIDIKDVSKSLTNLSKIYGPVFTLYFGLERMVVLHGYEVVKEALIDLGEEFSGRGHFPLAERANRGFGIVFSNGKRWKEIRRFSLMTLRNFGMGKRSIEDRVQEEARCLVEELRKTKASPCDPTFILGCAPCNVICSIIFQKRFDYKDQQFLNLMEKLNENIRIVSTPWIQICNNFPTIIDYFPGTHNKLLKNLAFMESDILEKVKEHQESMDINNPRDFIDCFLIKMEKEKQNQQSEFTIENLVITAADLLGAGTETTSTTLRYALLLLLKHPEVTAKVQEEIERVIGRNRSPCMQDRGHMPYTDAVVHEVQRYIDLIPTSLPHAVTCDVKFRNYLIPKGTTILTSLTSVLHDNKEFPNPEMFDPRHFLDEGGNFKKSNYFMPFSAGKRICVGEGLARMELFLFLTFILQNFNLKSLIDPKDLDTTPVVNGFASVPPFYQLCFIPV
Voltage-gated inwardly rectifying potassium channel KCNH2, sequence (Q12809 whole entry): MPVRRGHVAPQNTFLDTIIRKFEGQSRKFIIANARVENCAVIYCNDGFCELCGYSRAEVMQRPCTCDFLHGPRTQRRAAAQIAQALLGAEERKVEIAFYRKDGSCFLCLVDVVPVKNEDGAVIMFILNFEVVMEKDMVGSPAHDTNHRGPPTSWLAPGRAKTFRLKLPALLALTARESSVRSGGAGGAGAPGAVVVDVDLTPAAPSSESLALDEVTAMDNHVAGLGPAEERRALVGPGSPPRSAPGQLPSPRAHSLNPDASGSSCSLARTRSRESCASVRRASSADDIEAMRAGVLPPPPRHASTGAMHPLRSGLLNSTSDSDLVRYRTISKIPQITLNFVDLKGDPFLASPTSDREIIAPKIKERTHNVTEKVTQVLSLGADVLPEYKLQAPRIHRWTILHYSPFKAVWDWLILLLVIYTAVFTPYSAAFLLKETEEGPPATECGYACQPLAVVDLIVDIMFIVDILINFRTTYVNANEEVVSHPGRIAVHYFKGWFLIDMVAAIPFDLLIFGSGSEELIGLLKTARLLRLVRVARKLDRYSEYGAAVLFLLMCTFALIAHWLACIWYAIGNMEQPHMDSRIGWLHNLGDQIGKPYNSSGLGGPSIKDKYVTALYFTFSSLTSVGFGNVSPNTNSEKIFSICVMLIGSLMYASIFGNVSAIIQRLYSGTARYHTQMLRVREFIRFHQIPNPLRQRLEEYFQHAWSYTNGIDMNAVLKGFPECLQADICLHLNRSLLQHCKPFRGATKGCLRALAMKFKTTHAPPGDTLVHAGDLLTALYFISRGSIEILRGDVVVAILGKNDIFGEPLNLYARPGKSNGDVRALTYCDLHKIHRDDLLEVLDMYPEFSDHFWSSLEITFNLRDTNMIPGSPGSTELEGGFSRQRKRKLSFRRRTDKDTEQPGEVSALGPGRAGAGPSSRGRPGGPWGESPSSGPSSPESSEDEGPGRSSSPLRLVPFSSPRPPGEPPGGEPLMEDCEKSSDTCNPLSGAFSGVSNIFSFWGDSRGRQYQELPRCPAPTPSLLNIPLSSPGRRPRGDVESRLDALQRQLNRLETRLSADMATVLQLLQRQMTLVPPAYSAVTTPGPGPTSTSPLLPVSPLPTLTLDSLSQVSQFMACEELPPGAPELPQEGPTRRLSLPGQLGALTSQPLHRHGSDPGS
Mitogen-activated protein kinase 8, sequence (P45983 whole entry): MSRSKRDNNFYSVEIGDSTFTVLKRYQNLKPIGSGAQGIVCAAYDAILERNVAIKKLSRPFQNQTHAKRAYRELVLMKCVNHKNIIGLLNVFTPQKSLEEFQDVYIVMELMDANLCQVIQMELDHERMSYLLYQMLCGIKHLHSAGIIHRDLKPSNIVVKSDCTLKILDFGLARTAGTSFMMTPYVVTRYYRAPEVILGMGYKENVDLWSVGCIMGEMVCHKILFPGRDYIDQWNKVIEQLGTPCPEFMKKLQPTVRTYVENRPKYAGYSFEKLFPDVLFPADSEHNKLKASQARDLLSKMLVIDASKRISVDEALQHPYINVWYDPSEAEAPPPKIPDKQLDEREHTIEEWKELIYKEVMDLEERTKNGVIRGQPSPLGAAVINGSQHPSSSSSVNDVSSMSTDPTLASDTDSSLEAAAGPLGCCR
Cytochrome P450 2C9, sequence (P11712 whole entry): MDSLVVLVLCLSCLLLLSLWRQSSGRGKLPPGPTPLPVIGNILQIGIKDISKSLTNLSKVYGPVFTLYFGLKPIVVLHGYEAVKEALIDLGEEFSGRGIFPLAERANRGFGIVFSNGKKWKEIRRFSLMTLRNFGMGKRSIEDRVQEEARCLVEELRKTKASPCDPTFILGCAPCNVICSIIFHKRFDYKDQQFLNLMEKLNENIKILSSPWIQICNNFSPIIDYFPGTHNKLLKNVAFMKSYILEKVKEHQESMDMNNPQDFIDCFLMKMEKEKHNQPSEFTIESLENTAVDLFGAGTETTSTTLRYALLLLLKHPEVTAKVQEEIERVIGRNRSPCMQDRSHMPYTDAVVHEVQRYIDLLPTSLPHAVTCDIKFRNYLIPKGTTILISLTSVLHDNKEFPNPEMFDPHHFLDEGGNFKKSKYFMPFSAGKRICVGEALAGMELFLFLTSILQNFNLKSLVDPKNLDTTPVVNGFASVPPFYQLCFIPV

Work on `COc1cc(-c2cnn(C)c2)ccc1Nc1ncc2ccnc(N[C@@H](C)C(C)(C)C)c2n1` yielded a GI50 [1] of 110 nM, a clearance [2] of 28 mL/min/kg and a GI50 [3] of 3.95 µM. For the same compound, the “inhibition (INH)” value (Cytochrome P450 3A4 [4]) was “Not Active”, the “inhibition (INH)” value (Cytochrome P450 3A4 [5]) was “Not Active” and the “inhibition (INH)” value [6] was “Not Active”. For the same compound, the “inhibition (INH)” value (Cytochrome P450 2C9) was “Not Active”, the metabolised at 0.5 h, 10 µM [7] was 27% and the AUC at 24 h [8] was 4.8 µM·h. The bioavailability [9] was 68%, the fraction unbound at 24 h [10] was 0.0002 and the “inhibition (INH)” value (Cytochrome P450 2C19) was “Not Active”. The GI50 [11] was 68 nM, the “inhibition (INH)” value (Cytochrome P450 3A4 [12]) was “Not Active” and the fraction unbound at 24 h [13] was 0.0003. For the same compound, the Vd [14] was 14.7 L/kg, the “inhibition (INH)” value (Cytochrome P450 2C8) was “Not Active” and the metabolised at 0.5 h, 10 µM [15] was 24%. For the same compound, the metabolised at 0.5 h, 10 µM [16] was 70%, the half-life [17] was 492 min and the bioavailability [18] was 100%. For the same compound, the Cmax [19] was 770 nM, the Cmax [20] was 560 nM and the GI50 [21] was 250 nM. It also gave a GI50 [22] of 230 nM, a clearance [23] of 24 mL/min/kg and a Vd [24] of 4.64 L/kg. For the same compound, the IC50 [25] was 110 nM, the half-life [26] was 150 min and the “inhibition (INH)” value (Cytochrome P450 2B6) was “Not Active”.
